According to patent US7238469B2, “Carbon monoxide improves outcomes in tissue and organ transplants and suppresses apoptosis” (priority 2001, dated 2007):

Experiments:
[1] = water at 0° C.; cited from earlier work
[2] = tested on: murine islets of Langerhans; assay: DNA fragmentation analysis (FACScan) of murine islets stimulated with TNF-α and cycloheximide; assay type: cell-based, C57BL/6 mice; conditions: isolated murine islets; TNF-α plus cycloheximide; CO 1% for 24 hours; analysed after 48 hours
Description: βTC3 cultures were incubated with recombinant TNF-α (500 or 1000 U/ml) (R&D Systems) for 24 hours and islet cultures were stimulated with TNF-É (5000 U/ml) (R&D Systems) and cyclohexamide (CHX) (50 μg/ml) for 48 hours. βTC3 or islets were harvested, dispersed, fixed in 70% ethanol, and suspended in DNA staining buffer (PBS, pH 7.4, containing 0.1% Triton X-100, 0.1 mM EDTA, 50 μg/ml propidium iodide, […] Rnase A). DNA content was analyzed on a FACScan™ analyzer equipped with Cell QuestO Software (Becton Dickinson, Palo Alto, Calif.). Cells with a normal DNA content (2N) were scored as viable, whereas cells with a hypoploid DNA content (<2N, termed A^0) were scored as apoptotic. To exclude debris and apoptotic cell-free fragments, all events with an FL-2 area profile below that of chicken erythrocyte nuclei were excluded from analysis.
Cells and islets were exposed to 1% carbon monoxide in compressed air balanced with 5% CO2, as described elsewhere (see, e.g., Otterbein et al., Nature Med. 6:422–428, 2000). Islets were incubated in RPMI medium pre-saturated with carbon monoxide (4° C. overnight, 1% CO, 5% CO2) for two hours at 37° C. while treatment with 1% CO, 5% CO2 was continued.
Whether exogenous carbon monoxide protects murine islet cells from apoptosis was also investigated (FIG. 3). […] After 48 hours cells were analyzed on a FACScan™ for DNA fragmentation. […]

[3] = tested on: mouse hearts transplanted into rats; assay: Histomorphometric analysis of infarcted area in transplanted hearts; assay type: in vivo, BALB/c mouse hearts, Lewis rats; conditions: 3 days after transplantation; SnPPIX treated rats that received exogenous CO
Description: Grafts were harvested 3 days after transplantation, […], and serially sectioned (5 îm) in toto from the apex to the base. Ten sections were placed per slide in a total of about 20–25 slides. Every fifth slide was stained with hematoxylin and eosin (H&E) for histomorphometric analysis. Two images per slide were captured by using a Nikon Eclipse E600O microscope (Nikon, Melville, N.Y.) connected to a Hitachi 3-CCD Color Camera (model HV-C20; Hitachi, Tokyo, Japan) and to a Power MacintoshO 7300/200 computer (Apple Computer, Cupertino, Calif.) equipped with IPLab Spectrum digital imaging software (Signal Analytics Corporation, Vienna, Va.). About 50 images were captured from each transplanted heart from two to three animals per group. Images were analyzed by manual segmentation, tracing the infarcted and noninfarcted areas from the right and left ventricles in each section. Areas corresponding to infarcted and noninfarcted tissue were calculated by digital imaging software as number of pixels corresponding to those areas. Infarcted and noninfarcted areas were then calculated as percentage of total area. Pooled data for each group, expressed as area in pixels or as percentage of infarction, was analyzed by using ANOVA. […] Results are expressed as mean=SD. […]

[4] = tested on: HO-1; assay: Western blot of HO-1 expression in cultured endothelial cells; assay type: cell-based, mouse; conditions: data not shown
Description: Endothelial cells were washed in PBS (pH 7.2), harvested by scraping, and lysed in Laemmli buffer. Electrophoresis was conducted under denaturing conditions with 10% polyacrylamide gels. Proteins were transferred onto a polyvinyldifluoridine membrane (immobilon P; Millipore, Bedford, Mass.) by electroblotting and detected with rabbit polyclonal Abs directed against human HO-1 or HO-2 (StressGen, Victoria, Canada) or é-tubulin (Boehringer Mannheim, Mannheim, Germany). Proteins were visualized by using HRP-conjugated donkey anti-rabbit IgG or goat anti-mouse IgG (Pierce) and the ECL assay (Amersham Life Science, Arlington Heights, Ill.) according to manufacturer's instructions.

[C-]#[O+] [CO, carbon monoxide]
saturation point [1]: about 0.0044 g CO/100 g medium | apoptotic cells (DNA fragmentation analysis) [2]: 11.7% | infarction of the left ventricle [3]: 1.8±3.4% | infarction of the right ventricle [3]: 8.4±5.3%

C=Cc1c2[n-]c(c1C)/C=c1\[n-]/c(c(C)c1C=C)=C\c1[n-]c(c(CCC(=O)O)c1C)C=c1[n-]/c(c(C)c1CCC(=O)O)=C\2.[Sn+4] [SnPPIX, tin protoporphyrin IX]
expression of HO-1 in cultured endothelial cells [4]: up-regulated the expression of HO-1
